{"source": "patent US5167947A", "about": "“Enhancement of absorption of radioprotective drugs” (Southwest Research Institute, priority 1989, dated 1992)", "key": {"[1]": {"assay": "in situ rat intestinal perfusion of ethiofos: circulating perfusate and portal blood", "format": "in vivo, rat (male Sprague-Dawley)", "details": "for plasma concentration change on addition of Na2 EDTA: 1.0 mM Na2 EDTA vs without; for levels in portal blood samples, change on addition of Na2 EDTA: 1 mM Na2 EDTA vs without, ethiofos / total WR-1065; for level in portal blood: perfusion of [14C]ethiofos in pH-adjusted water, intact ethiofos / total WR-1065", "experimental": "Male Sprague-Dawley rats were maintained on a regular diet of rat chow prior to dosing and fasted 16 h before the experiment. Water was available ad libitum.\nRats weighing between 250 g and 325 g were chosen and anesthetized with 50.0 mg/kg sodium pentobarbital ip. The cannulation of the intestine was performed as previously described.\nThe proximal cannula was inserted through the stomach wall past the pyloric sphincter for experiments which included the bile flow. Experiments which excluded the bile flow were cannulated approximately 3 cm distal to the pyloric spinchter. Five microcuries of (^3 H)PEG 4000 was included in the perfusate to monitor water flux. For some experiments, 1 mCi of (^14 C)ethiofos was added to the reservoir.\nConcommitant sampling of blood was accomplished by insertion of a catheter in the portal vein via the ileocecal vein. […] Rectal temperature was monitored in early experiments to assure maintenance of body temperature in this system.\n(§1) Ethiofos was separated on a Bioanalytical Systems […] Phase II C18 ODS analytical column with an Uptight guard column packed with Whatman Pellicular C18 37-53 mm material. Amperometric detection was conducted with a Bioanalytical Systems LC 4B amperometric detector with a Hg/Au transducer ell. Detector signal was output to a Waters Associates Model 840 data system.\n(§2) A […] portion of blood was immediately treated with […] of chilled (0°-4° C.) 1.0M HC10 containing 1 g/L EDTA. The samples were vortexed and centrifuged at 15,600×g for 45 sec. […] Samples were immediately frozen at -78° C. in a dry ice/2-propanol bath and transferred to a freezer maintained at -78° C.\n(§3) The samples were prepared for HPLC analysis by adding 200 ml of buffer (pH 10). Samples were injected onto HPLC Unit A and amperometrically detected with an Hg/Au electrode at +0.25 V. The assay method has been previously described by Swynnerton, McGovern, Nino and Mangold: J. Radiat. Oncol.\n(§4) J. Radiat. Oncol. […] Samples were injected on HPLC Unit B and amperometrically detected at +0.15 V."}, "[2]": {"details": "in vivo; cited from earlier work"}, "[3]": {"details": "cited from earlier work"}, "[4]": {"assay": "intraduodenal administration of ethiofos to Rhesus monkeys, plasma levels", "format": "in vivo", "details": "Rhesus monkey; for plasma levels on coadministration of ethiofos with EDTA: ethiofos / free and total WR-1065", "experimental": "An ethiofos solution was administered via rapid infusion through an infant nasogastric tube instilled in the duodenum of Rhesus monkeys. X-rays were taken to ensure proper location of the tube prior to drug administration. […] Prior to administration of dosing solution, 10 ml of 1 mM EDTA was predosed into the duodenum over 1 hr using a calibrated infusion pump.\nas §1, §2, §3, §4"}, "dogs": {"test_system": "dogs", "details": "cited from earlier work"}, "mice [5]": {"test_system": "mice", "details": "intravenous; cited from earlier work"}, "mice [6]": {"test_system": "mice", "details": "cited from earlier work"}, "Rhesus monkeys": {"test_system": "Rhesus monkeys", "details": "cited from earlier work"}, "circulating calcium": {"test_system": "circulating calcium", "details": "human clinical trials; cited from earlier work"}, "[7]": {"details": "in vivo; cited from earlier work", "remark": "listed apart in the source"}, "[8]": {"details": "stomach acid; cited from earlier work"}}, "note": "“And” between values parts separate entries of the source, which are not always exact repeats. Equal values may be shown once. Read-outs that look alike come from different tables or passages of the source."}
{"smiles": "NCCCNCCS", "note": "[WR-1065]", "values": [{"measurement": "plasma concentration change on addition of Na2 EDTA", "setting": "[1]; rat", "result": "significant increase"}, {"measurement": "levels in portal blood samples, change on addition of Na2 EDTA", "setting": "[1]; rat", "result": "significant increases"}, {"measurement": "metabolite formed in the intestinal lumen", "setting": "[1]; rat, from perfusate mass balance", "result": "major metabolite"}, {"measurement": "level in portal blood", "setting": "[1]; rat, no EDTA", "result": "comparatively high levels"}, {"measurement": "toxicity of the free thiol relative to the parent drug ethiofos", "setting": "[2]", "result": "much more toxic"}, {"measurement": "halflife compared with ethiofos", "setting": "[3]; rhesus monkey, in vivo, iv", "result": "much long halflife"}, {"measurement": "plasma levels on coadministration of ethiofos with EDTA", "setting": "[4]; intraduodenal, awake", "result": "substantial increase"}]}
{"smiles": "O=C(O)CN(CCN(CC(=O)O)CC(=O)O)CC(=O)O", "note": "[EDTA, ethylenediaminetetraacetic acid]", "values": [{"measurement": "protection of ethiofos degradation in the lumen by EDTA", "setting": "[1]; rat in situ", "result": "some protection"}, {"measurement": "rate of absorption of ethiofos with EDTA", "setting": "[1]; rat in situ", "result": "increase the rate of absorption"}, {"measurement": "EDTA concentration at which increased absorption reaches a maximum", "setting": "[1]; rat intestinal perfusion of ethiofos", "result": "approximately 1 mM"}, {"measurement": "EDTA concentration giving highest ethiofos levels in portal blood", "setting": "[1]; rat, 90 minutes in situ intestinal perfusion", "result": 1.5, "unit": "mM"}, {"measurement": "absorption of ethiofos with EDTA", "setting": "[4]; intraduodenal, awake", "result": "enhanced the absorption"}]}
{"smiles": "NCCCNCCSP(=O)(O)O", "note": "[ethiofos, S-2-(3-aminopropylamino)ethylphosphorothioic acid]", "values": [{"measurement": "protection against X-rays and gamma radiation", "setting": "dogs; intravenous", "result": "has been shown to protect"}, {"measurement": "protection (oral dosing)", "setting": "dogs; oral", "result": "failed to protect"}, {"measurement": "protection against X-rays and gamma radiation", "setting": "mice [5]", "result": "has been shown to protect"}, {"measurement": "disappearance of parent compound from the perfusate", "setting": "[1]; rat in situ, [14C]ethiofos in pH-adjusted water, first 30 minutes, no EDTA", "result": "fairly rapid rate"}, {"measurement": "radioactivity accounted for by ethiofos and measured metabolite (mass balance of perfusate)", "setting": "[1]; rat intestinal perfusate, no EDTA", "result": "approximately 85%"}, {"measurement": "radioactivity not accounted for by WR-1065 and ethiofos", "setting": "[1]; rat intestinal perfusate, no EDTA, may be disulfides", "result": 15, "unit": "%"}, {"measurement": "plasma concentration change on addition of Na2 EDTA", "setting": "[1]; rat", "result": "significant increase"}, {"measurement": "levels in portal blood samples, change on addition of Na2 EDTA", "setting": "[1]; rat", "result": "significant increases"}, {"measurement": "labelled ethiofos / radioactivity remaining in the circulating perfusate", "setting": "[1]; rat, 90 min perfusion, pH-adjusted water, no EDTA", "result": "90.5±1.7% and 90.5±1.74%"}, {"measurement": "radioactivity remaining in the circulating perfusate", "setting": "[1]; rat, 90 min perfusion, with 1.0 mM Na2 EDTA", "result": "85.8±1.09", "unit": "%"}, {"measurement": "factor of increase of appearance of ethiofos in rat portal blood", "setting": "[1]; rat, EDTA enhancement, 90 minutes in situ perfusion", "result": 20}, {"measurement": "level in portal blood", "setting": "[1]; rat, no EDTA", "result": "transient and low levels"}, {"measurement": "plasma halflife", "setting": "[3]; iv, rhesus monkeys 150 mg/kg", "result": "approximately 18 minutes"}, {"measurement": "ethiofos or its metabolites excreted in the urine within 120 hours", "setting": "[3]; rhesus monkeys, iv 150 mg/kg, most within 24 hours", "result": 80, "unit": "%"}, {"measurement": "approximate LD50", "setting": "mice [6]; intraperitoneal", "result": "~950", "unit": "mg/kg"}, {"measurement": "approximate LD50", "setting": "mice [6]; oral", "result": "~1500", "unit": "mg/kg"}, {"measurement": "plasma levels on coadministration of ethiofos with EDTA", "setting": "[4]; intraduodenal, awake", "result": "detectable levels"}, {"measurement": "AUC", "setting": "[4]; in vivo, intraduodenal 150 mg/kg, in the presence of EDTA (47:1 ethiofos to EDTA), read-out: AUC (plasma concentration-time curve)", "result": 0.55, "unit": "µM·h"}, {"measurement": "protection against X-rays and gamma radiation", "setting": "Rhesus monkeys; Rhesus monkeys, intravenous", "result": "has been shown to protect"}, {"measurement": "protection (oral dosing)", "setting": "Rhesus monkeys; monkeys, oral", "result": "failed to protect"}, {"measurement": "loss of circulating calcium", "setting": "circulating calcium", "result": "loss of circulating calcium"}, {"measurement": "slowing of stomach motility and gastric emptying", "setting": "[7]", "result": "can slow stomach motility and gastric emptying"}, {"measurement": "hydrolysis in the acidic environment of the stomach", "setting": "[8]", "result": "can be hydrolyzed"}]}
